In test [1] the test system is Noradrenaline-Precontracted Aorta. In words: Endothelium-dependent smooth muscle relaxation of noradrenaline-precontracted rabbit aorta rings in an organ bath. The note with it: Oryctolagus cuniculus, noradrenaline 3 × 10^-7 mol/L. As to the method:
Rabbit aorta rings are fixed in an organ bath filled with physiological salt solution (Krebs-Henseleit) between L-shaped wires. The solution is gassed with carbogen. Contractions are initiated by 3×10^-7 noradrenaline. When the tension has reached a stable plateau, compounds of the instant invention are added. The effect of the compounds first is tested on organ preparation with functioning endothelium. In an additional experiment in order to test whether the relaxation is endothelium-dependent the compounds are tested with aorta rings with damaged endothelium. For an endothelium-dependent relaxation, effected by the endothelium-derived relaxating factor (EDRF), the following characteristics are required: absence of the effect in preparations with damaged endothelium, no inhibition of the relaxation by indomethazine and inhibition of the relaxation by NDGA (nordihydro-guaiaretic acid), methylene blue and gossypol. These criteria are completely met by the compounds listed in Table II, and one can conclude, that the compounds of the instant invention act in an unexpected manner by the release of EDRF, and thereby relax vascular smooth muscle.

In test [2] the target is calcium- and phospholipid-dependent protein kinase (PKC). In words: Inhibition of the activity of protein kinase C (incorporation of P^32-labelled phosphate into histone H-1). Type of test: biochemical. As to conditions: PKC enriched from rat brain; histone H-1 substrate; 5 min, 30° C.; pH 7.5. The text has this:
For the clarification of the inhibiting influence of compounds of formula I according to the present invention on the calcium- and phospholipid-dependent protein kinase (PKC), this enzyme activity was enriched from rat brain. Using the purification steps described in the literature (J. Biol. Chem., 260, 15718-15722/1985), in the case of a purification consisting of two steps, there was utilized the property of the enzyme to bind to cell membranes in the presence of calcium and to be dissolved off again by calcium chelators (EGTA). In the first enrichment step, there took place the binding of the PKC to membranes of the rat brain and in the second step on so-called inside-out vesicles or erythrocytes. After dissolving off from the erythrocyte membranes and rebuffering, the PKC preparation was present in 10 mM HEPES, 1 mM DTT, 0.1% PEG 20000, pH 7.5. Under these conditions, it could be stored at -70° C. for several months without loss of activity.
The activity of the enzyme was determined via the incorporation of P^32 -labelled phosphate into the protein histone H-1 (Sigma Type III) which can be phosphorylated by PKC.
The test thereby contains the following components: 50 mM HEPES-NaOH (pH 7.5), 5 mM magnesium chloride, 1 mM DTT, 4 μm. free calcium ions, 10 μMaTP, 1 μg phosphatidylserine, 0.2 μg 1,2-diolein, as well as 40 μg histone H-1 and optionally the test substance.
The batch is preincubated for 4 minutes at 30° C. and the reaction then started by the addition of 5 nM PKC. After incubating for 5 minutes at 30° C., the reaction is stopped with 10% TCA and the samples then filtered off. The phosphate incorporation is determined by Cerenkov counting in a scintillation counter. The kinase activity measured in the absence of the test substance was, in each case, taken as being 100% and the inhibiting action of the compounds of formula I referred thereto as percentages.

Setting [3] is: damaged endothelium, read-out: Relaxation of Noradrenaline-Precontracted Aorta, EC50, Damaged Endothelium.
Setting [4] is: functioning endothelium, read-out: Relaxation of Noradrenaline-Precontracted Aorta, EC50, Functioning Endothelium.

Where a name gives a salt, the structure may show the parent alone. Read-outs that look alike come from different tables or passages of the source.

Broadly, the EC50 is the concentration giving half of the maximal effect. Turning to `CC(=O)OCC[N+](C)(C)C` [Acetylcholine, reference compound], the EC50 in test [1] (setting [3]) is over 100 µM; in test [1] (setting [4]) it was 0.03 µM.

The IC50 is the concentration needed to halve the response being measured. Consider `CCCCCCCCCCCCCCCCCCOc1cn(Cc2ccccc2)c(CNCCCN(C)C)cc1=O` [Example 54, 1-Benzyl-2-[N-(3-dimethylaminopropyl)-aminomethyl]-5-octadecyloxy-4(1H)-pyridone dioxalate], for which the IC50 in test [2] stood at 1.4 µM. For the same compound, the EC50 in test [1] (setting [3]) was over 100 µM; in test [1] (setting [4]), 15 µM.

As for `CCCCCCCCCCCCCCCCCCOc1cn(Cc2ccc(Cl)cc2)c(CNCCCN(C)C)cc1=O` [Example 69, 1-(4-Chlorobenzyl)-2-[N-(3-dimethylamino-propyl)aminomethyl]-5-octadecyloxy-4(1H)-pyridone difumarate 1.25 hydrate], the IC50 in test [2] was determined as 1.5 µM. The EC50 was over 100 µM in test [1] (setting [3]) and 30 µM in test [1] (setting [4]).

Turning to `CCCCCCCCCCCCCCCCCCOc1cn(Cc2ccccc2)c(CNCCCN(C)Cc2ccccc2)cc1=O` [Example 71, 1-Benzyl-2-[N-(3-N-benzyl-N-methylaminopropyl)aminomethyl]-5-octadecyloxy-4(1H)-pyridone difumarate], in test [2], the IC50 stood at 1.8 µM. For the same compound, the concentration for a half-maximal effect (EC50) in test [1] (setting [3]) was over 100 µM; in test [1] (setting [4]) it was 3 µM.

In the case of `CCCCCCCCCCCCCCCCCCOc1cn(Cc2ccccc2)c(CN2CCN(Cc3ccccc3)CC2)cc1=O` [Example 88, 1-[(1-Benzyl-5-octadecyloxy-4(1H)-pyridon-2-yl)methyl]-4-benzylpiperazine], the IC50 in test [2] worked out at 3 µM. Besides, the EC50 is over 100 µM in test [1] (setting [3]) and 3.4 µM in test [1] (setting [4]).

On to `CCCCCCCCCCCCCCCCCCOc1cn(Cc2ccccc2)c(CN2CCC(CN)(c3ccccc3)CC2)cc1=O` [Example 101, 1-[(1-Benzyl-5-octadecyloxy-4(1H)-pyridon-2-yl)methyl]-4-aminomethyl-4-phenylpiperidine trihydrochloride], for which, in test [2], the half-inhibitory concentration (IC50) worked out at 1.5 µM. The EC50 in test [1] (setting [3]) is over 100 µM; in test [1] (setting [4]), 20 µM.

As for `CCCCCCCCCCCCCCCCCCOc1cn(Cc2ccccc2)c(COCCCN(C)C)cc1=O` [Example 103, 1-Benzyl-2-(3-dimethylaminopropoxymethyl)-5-octadecyloxy-4(1H)-pyridone dihydrochloride], the IC50 in test [2] stood at 4 µM.

For the compound `CCCCCCCCCCCCCCCCCCOc1cn(CCC)c(COCCCN(C)C)cc1=O` [Example 105, 2-(3-Dimethylaminopropoxymethyl)-5-octadecyloxy-1-propyl-4(1H)-pyridone dihydrochloride 3/4 hydrate], in test [2], the IC50 worked out at 2 µM.

On to `CCCCCCCCCCCCCCCCCCOc1cn(Cc2ccc(C)cc2)c(COCCCN(C)C)cc1=O` [Example 106, 2-(3-Dimethylaminopropoxymethyl)-1-(4-methylbenzyl)-5-octadecyloxy-4(1H)-pyridone dihydrochloride sesquihydrate], for which the IC50 in test [2] is 2.4 µM.

`CCCCCCCCCCCCCCCCCCOc1cn(Cc2ccc(OC)cc2)c(COCCCN(C)C)cc1=O` [Example 107, 2-(3-Dimethylaminopropoxymethyl)-1-(4-methoxybenzyl)-5-octadecyloxy-4(1H)-pyridone dihydrochloride 1/4 hydrate]: the IC50 in test [2] turned out to be 2.9 µM.

With `CCCCCCCCCCCCCCCCCCOc1cn(CC2CCCCC2)c(COCCCN(C)C)cc1=O` [Example 108, 1-Cyclohexylmethyl-2-(3-dimethylaminopropoxymethyl)-5-octadecyloxy-4(1H)-pyridone oxalate], the IC50 in test [2] worked out at 2.9 µM.

In the case of `CCCCCCCCCCCCCCCCCCOc1cn(Cc2ccc(Cl)cc2)c(COCCCN(C)C)cc1=O` [Example 109, 1-(4-Chlorobenzyl)-2-(3-dimethylaminopropoxymethyl)-5-octadecyloxy-4(1H)-pyridone dihydrochloride 2.5 hydrate], in test [2], the 50% inhibitory concentration (IC50) was 2.6 µM.

Take `CCCCCCCCCCCCCCCCCCOc1cn(Cc2ccccc2)c(CCC(=O)OC)cc1=O` [Example 114, Methyl 3-[1-benzyl-5-octadecyloxy-4(1H)-pyridon-2-yl]-propionate]: in test [2], the IC50 turned out to be 9 µM.

For `CCCCCCCCCCCCCCCCCCOc1cn(Cc2ccccc2)c(CCC(N)=O)cc1=O` [Example 116, 3-[1-benzyl-5-octadecyloxy-4(1H)-pyridon-2-yl]-propionic acid amide], the IC50 in test [2] stood at 9 µM.

The record behind these values is patent US5185352A, “Alkoxy-4(1H)-pyridone derivatives, processes for the preparation thereof and pharmaceutical compositions containing them” (Goedecke Aktiengesellschaft, priority 1988, dated 1993).
